Key:
[1] = Observation of samples for solubility/precipitation in water (Example 9); format: physicochemical; conditions: for time over which a soluble solution was promoted: 0.3% steviol glycoside mixture, 5:1 molar ratio of acid to steviol glycoside
[2] = format: physicochemical
Source text: The composition can optionally be expressed in terms of the concentration of one or more steviol glycoside(s). […] Clear solutions without precipitates are considered soluble. Unless indicated otherwise herein, the term “solubility” refers to “equilibrium solubility.”

[3] = sensory evaluation; cited from earlier work

Row | Structure (SMILES) | time over which a soluble solution was promoted [1] [days] | equilibrium solubility [2] | instantaneous solubility [2] | further results
1 | O=C(O)c1cc(O)c(O)c(O)c1 [Gallic acid] | – | – | – | colour imparted to the sample solutions ([1]; more apparent at higher concentrations, observed after about 3 days): brownish tinge
2 | O=C(O)C(O)c1ccccc1 (centres unmarked) [Mandelic acid] | 3 | – | – | –
3 | O=C(O)c1cc(C(=O)O)c(C(=O)O)cc1C(=O)O [Pyromellitic acid] | 3 | – | – | –
4 | C=C1C[C@@]23CC[C@H]4[C@@](C)(CCC[C@@]4(C)C(=O)O[C@@H]4O[C@H](CO)[C@@H](O)[C@H](O)[C@H]4O[C@@H]4O[C@H](CO)[C@@H](O)[C@H](O)[C@H]4O)[C@@H]2CC[C@]1(O[C@@H]1O[C@H](CO)[C@@H](O)[C@H](O[C@@H]2O[C@H](CO)[C@@H](O)[C@H](O)[C@H]2O)[C@H]1O[C@@H]1O[C@H](CO)[C@@H](O)[C@H](O)[C@H]1O)C3 [Rebaudioside D, rebaudioside D] | – | 0.08% | less than 0.08% | times sweeter than sucrose [3]: 200-220 times
5 | C=C1C[C@@]23CC[C@H]4[C@@](C)(CCC[C@@]4(C)C(=O)O[C@@H]4O[C@H](CO)[C@@H](O)[C@H](O[C@@H]5O[C@H](CO)[C@@H](O)[C@H](O)[C@H]5O)[C@H]4O[C@@H]4O[C@H](CO)[C@@H](O)[C@H](O)[C@H]4O)[C@@H]2CC[C@]1(O[C@@H]1O[C@H](CO)[C@@H](O)[C@H](O[C@@H]2O[C@H](CO)[C@@H](O)[C@H](O)[C@H]2O)[C@H]1O[C@@H]1O[C@H](CO)[C@@H](O)[C@H](O)[C@H]1O)C3 [Rebaudioside M, rebaudioside M] | – | about 0.2% | about 0.13% | –
